Measurements reported in patent US20070244184A1, “GLYCOSIDASE INHIBITORS AND METHODS OF SYNTHESIZING SAME” (SIMON FRASER UNIVERSITY, priority 2006, published 2007).
Where a name gives a salt, the structure may show the parent alone. Read-outs that look alike come from different tables or passages of the source.

Assays:
[1] = biological target: T1, recombinant human maltase glucoamylase (MGA) (Homo sapiens, UniProt O43451); experiment: Recombinant MGA inhibition, maltose substrate, glucose oxidase assay (Ki); type: biochemical; conditions: for Ki: maltose substrate, read-out: Ki against recombinant human MGA
Description: (§1) Enzyme Activity Assays: Measurement of dGMII inhibition was carried out as outlined in the literature.^12 Analysis of recombinant MGA inhibition and determination of the kinetic constants for competitive inhibition have been described.^60 Briefly, analysis of MGA inhibition was performed using maltose as the substrate, and measuring the release of glucose. Reactions were carried out in 100 mM MES buffer pH 6.5 at 37° C. The reaction was stopped by boiling for 3 min. 20 μL aliquots were taken and added to 100 μL of glucose oxidase assay reagent (Sigma) in a 96-well plate. Reactions were developed for 1 hour and absorbance was measured at 450 nm to determine the amount of glucose produced by MGA activity in the reaction. All reactions were performed in triplicate and absorbance measurements were averaged to give a final result.
Enzyme Kinetics: Kinetic parameters of recombinant MGA were determined using the glucose oxidase assay to follow the production of glucose upon addition of enzyme (15 nM) at increasing maltose concentrations (from 2.5 mM to 30 mM) with a reaction time of 15 minutes. The Ki value was determined by measuring the rate of maltose hydrolysis by MGA at varying inhibitor concentrations. Data were plotted in Lineweaver-Burk plots (1/rate vs. 1/[substrate]) and the Ki value was determined by the equation Ki=Km[I]/(Vmax)s−Km, where “s” is the slope of the line. The Ki reported was an average of the Ki values obtained from each of the different inhibitor concentrations.
Enzyme Activity Assay. Analysis of MGA inhibition was performed using maltose as the substrate, and measuring the release of glucose. Reactions were carried out in 100 mM MES buffer pH 6.5 at 37° C. for 15 min. The reaction was stopped by boiling for 3 min. 20 μL aliquots were taken and added to 100 μL of glucose oxidase assay reagent (Sigma) in a 96-well plate. Reactions were allowed to proceed for 1 h and absorbance was measured at 450 nm to determine the amount of glucose produced by MGA activity in the reaction. One unit of activity is defined as the hydrolysis of one […] of maltose per minute. All reactions were performed in triplicate and absorbance measurements were averaged to give a final result.
Enzyme Kinetics. Kinetic parameters of recombinant MGA were determined using the glucose oxidase assay to follow the production of glucose upon addition of enzyme (15 nM) at increasing maltose concentrations (from 1 mM-3.5 mM) with a reaction time of 15 min. The program GraFit 4.0.14 was used to fit the data to the Michaelis-Menten equation and estimate the kinetic parameters, Km and Vmax, of the enzyme. Ki values for each inhibitor were determined by measuring the rate of maltose hydrolysis by MGA at varying inhibitor concentrations. Data were plotted in Lineweaver-Burk plots (1/rate vs. 1/[substrate]) and Ki values were determined by the equation Ki=Km[I]/(Vmax)m−Km, where “m” is the slope of the line. The Ki reported for each inhibitor was estimated by averaging the Ki values obtained from each of the different inhibitor concentrations.

[2] = biological target: T2, Drosophila melanogaster Golgi α-mannosidase II (dGMII) (Drosophila melanogaster, UniProt Q24451); experiment: dGMII inhibition; type: biochemical
T2 sequence (Q24451 1-1108): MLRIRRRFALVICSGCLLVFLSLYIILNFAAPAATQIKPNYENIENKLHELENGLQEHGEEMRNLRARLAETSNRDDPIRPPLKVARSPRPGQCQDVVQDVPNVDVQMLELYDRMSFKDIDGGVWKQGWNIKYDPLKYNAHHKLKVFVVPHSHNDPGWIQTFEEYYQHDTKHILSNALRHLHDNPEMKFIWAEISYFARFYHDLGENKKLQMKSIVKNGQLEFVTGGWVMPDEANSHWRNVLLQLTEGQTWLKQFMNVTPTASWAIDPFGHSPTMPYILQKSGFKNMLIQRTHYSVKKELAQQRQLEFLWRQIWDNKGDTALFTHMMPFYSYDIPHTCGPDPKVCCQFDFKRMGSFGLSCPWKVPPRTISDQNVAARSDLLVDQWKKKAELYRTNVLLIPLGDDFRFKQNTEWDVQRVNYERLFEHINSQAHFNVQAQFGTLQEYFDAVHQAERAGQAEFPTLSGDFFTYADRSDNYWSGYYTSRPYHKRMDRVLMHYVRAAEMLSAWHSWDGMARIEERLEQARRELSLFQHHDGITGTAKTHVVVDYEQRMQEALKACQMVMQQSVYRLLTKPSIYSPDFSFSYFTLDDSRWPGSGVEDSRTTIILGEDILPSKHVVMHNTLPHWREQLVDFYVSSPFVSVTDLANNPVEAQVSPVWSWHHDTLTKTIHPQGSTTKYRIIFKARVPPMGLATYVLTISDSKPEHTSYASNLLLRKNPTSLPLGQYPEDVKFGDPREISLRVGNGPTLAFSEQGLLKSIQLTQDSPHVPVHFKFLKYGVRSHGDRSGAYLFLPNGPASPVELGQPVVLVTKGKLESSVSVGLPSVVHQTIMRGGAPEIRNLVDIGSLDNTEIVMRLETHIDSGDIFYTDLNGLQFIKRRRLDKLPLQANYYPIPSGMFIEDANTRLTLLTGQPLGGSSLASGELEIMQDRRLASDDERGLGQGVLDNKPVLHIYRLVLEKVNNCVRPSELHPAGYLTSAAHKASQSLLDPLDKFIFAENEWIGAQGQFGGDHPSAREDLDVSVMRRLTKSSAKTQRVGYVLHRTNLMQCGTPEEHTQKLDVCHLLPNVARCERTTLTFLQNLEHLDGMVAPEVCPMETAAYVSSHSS
Description: as §1

[3] = biological target: T1, recombinant human maltase glucoamylase (MGA); experiment: MGA inhibition, p-nitrophenyl α-D-glucopyranoside substrate (IC50); type: biochemical; conditions: p-nitrophenyl α-D-glucopyranoside as substrate
Description: The assays were carried out in 96-well microtiter plates containing 100 mM MES buffer pH 6.5, inhibitor and pNP-glucose as substrate, with a final volume of 50 μL. Reactions were incubated at 37° C. for 35 min and terminated by addition of 50 μL of 0.5 M sodium carbonate. […] All reactions were performed in triplicate and absorbance measurements were averaged to give a final result.

[4] = biological target: T1, recombinant human maltase glucoamylase (MGA); conditions: cited from earlier work
[5] = biological target: T2, Drosophila melanogaster Golgi α-mannosidase II (dGMII); conditions: read-out: IC50 against dGMII, cited from earlier work

T1 sequence (O43451 87-954 limits assumed): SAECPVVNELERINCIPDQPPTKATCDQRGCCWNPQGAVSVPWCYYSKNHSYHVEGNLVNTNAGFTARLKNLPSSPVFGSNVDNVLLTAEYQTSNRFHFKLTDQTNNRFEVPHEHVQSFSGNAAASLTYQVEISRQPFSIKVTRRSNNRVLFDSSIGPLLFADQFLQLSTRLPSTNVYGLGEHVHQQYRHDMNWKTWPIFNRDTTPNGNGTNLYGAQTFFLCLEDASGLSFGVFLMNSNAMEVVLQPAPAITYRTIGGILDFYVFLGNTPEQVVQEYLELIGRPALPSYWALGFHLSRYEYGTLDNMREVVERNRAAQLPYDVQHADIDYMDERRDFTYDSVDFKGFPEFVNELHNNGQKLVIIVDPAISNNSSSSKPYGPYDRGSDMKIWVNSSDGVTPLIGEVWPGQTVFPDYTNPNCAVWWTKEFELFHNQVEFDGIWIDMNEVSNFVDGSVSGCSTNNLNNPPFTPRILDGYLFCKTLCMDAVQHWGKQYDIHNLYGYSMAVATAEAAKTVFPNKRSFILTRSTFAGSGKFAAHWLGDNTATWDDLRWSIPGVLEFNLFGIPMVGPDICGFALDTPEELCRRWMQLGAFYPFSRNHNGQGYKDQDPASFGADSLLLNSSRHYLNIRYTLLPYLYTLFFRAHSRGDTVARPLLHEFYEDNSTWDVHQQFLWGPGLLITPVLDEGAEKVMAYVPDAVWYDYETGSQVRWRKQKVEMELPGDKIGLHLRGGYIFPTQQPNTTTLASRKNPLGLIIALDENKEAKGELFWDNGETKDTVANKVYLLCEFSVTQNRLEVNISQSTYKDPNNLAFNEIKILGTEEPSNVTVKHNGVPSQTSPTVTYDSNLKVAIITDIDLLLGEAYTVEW

CCCCCCCCCCCCCC[S+]1CC(O)C(O)C1CO (as salt: chloride) [Compound 48, 1,4-Dideoxy-1,4-[(1-tetradecyl)-(R)-episulfoniumylidene]-D-arabinitol chloride]
melting point: 86 to 88 °C

CCCCCCCCCCCCCCCCCC[S+]1CC(O)C(O)C1CO (as salt: chloride) [Compound 49, 1,4-Dideoxy-1,4-[(1-octadecyl)-(R)-episulfoniumylidene]-D-arabiiiitol chloride]
melting point: 95 to 97 °C

CCCCCCCCCCCCCC[S+]1CC(O)C(O)C1CO (as salt: triflate) [Compound 44, 1,4-Dideoxy-1,4-[(1-tetradecyl)-(R)-episulfoniumylidene]-D-arabinitol triflate]
melting point: 69 to 71 °C

O=C([O-])[C@H](O)[C@H](O)[C@H](O)C[S@@+]1C[C@H](O)[C@@H](O)[C@@H]1CO [Compound 4, 1,4-Dideoxy-1,4-[[(2′S,3′S,4′R)-2′,3′,4′-trihydroxy-4′-carboxybutyl]-episulfoniumyl-idene]-L-arabinitol inner salt]
inhibitory activity against recombinant human MGA (in words) [1]: Only compound 5, with the D-arabinitol configuration in the heterocyclic ring displayed by salacinol 1, was found to be active

O=C([O-])C(O)C(O)C(O)C[S+]1CC(O)C(O)C1CO [Compound 5, 1,4-Dideoxy-1,4-[[(2′S,3′S,4′R)-2′,3′,4′-trihydroxy-4′-carboxybutyl]-episulfoniumyl-idene]-D-arabinitol inner salt]
Ki [1]: 10 µM

O=C(O)[C@@H](O)[C@@H](O)[C@H](O)[C@@H](O)CN1C[C@H](O)[C@@H](O)[C@@H]1CO [Compound 20, 6′-((1,4-Dideoxy-1,4-imino-L-arabinitol)-4-N-ammonium)-6′-deoxy-L-gulonate]
activity against dGMII (in words) [2]: not active on either enzyme
inhibitory activity against recombinant human MGA (in words) [1]: not active on either enzyme

O=C(O)[C@@H](O)[C@@H](O)[C@H](O)[C@@H](O)CN1C[C@@H](O)[C@H](O)[C@H]1CO [Compound 21, 6′-((1,4-Dideoxy-1,4-imino-D-arabinitol)-4-N-ammonium)-6′-deoxy-L-gulonic acid hydro-chloride]
improvement of dGMII inhibition over salacinol, kotalanol and other analogues ([2]; 0.3 mM vs approximately 7.5 mM): 25 fold
IC50 ([2]; read-out: IC50 against dGMII): 300 µM
Ki [1]: 21 µM

CCCCCCCCCCCCCC[S+]1CC(O)C(O)C1CO [Compound 44, 1,4-Dideoxy-1,4-[(1-tetradecyl)-(R)-episulfoniumylidene]-D-arabinitol triflate]
IC50 [3]: 25 µM

CCCCCC[S+]1CC(O)C(O)C1CO [Compound 46, 1,4-Dideoxy-1,4-[(1-hexyl)-(R)-episulfoniumylidene]-D-arabinitol chloride]
IC50 [3]: 50 µM

CCCCCCCCCCCCCC[S+]1CC(O)C(O)C1CO [Compound 48, 1,4-Dideoxy-1,4-[(1-tetradecyl)-(R)-episulfoniumylidene]-D-arabinitol chloride]
IC50 [3]: 30 µM

CCCCCCCCCCCCCCCCCC[S+]1CC(O)C(O)C1CO [Compound 49, 1,4-Dideoxy-1,4-[(1-octadecyl)-(R)-episulfoniumylidene]-D-arabiiiitol chloride]
IC50 [3]: 15 µM

CC(C)CC[S+]1CC(O)C(O)C1CO [Compound 50, 1,4-Dideoxy-1,4-[[1-(3-methyl)-butyl]-(R)-episulfoniumylidene]-D-arabinitol chloride]
IC50 [3]: 50 µM

O=S(=O)([O-])OC(CO)C(O)C(O)C[S+]1CC(O)C(O)C1CO (stereo not shown) [Compound 78]
Ki [1]: 20 ± 4 µM

O=S(=O)([O-])OC(CO)C(O)C(O)C[Se+]1CC(O)C(O)C1CO [Compound 79, 1,4-Dideoxy-1,4[[2S,3S,4S]-2,3,5-trihydroxy-4-(sulfooxy)-pentyl]-epi-selenoniumylidene]-D-arabinitol Inner salt]
Ki [1]: 53 ± 5 µM

O=S(=O)([O-])O[C@H](CO)[C@H](O)[C@@H](O)C[S+]1C[C@@H](O)[C@H](O)[C@H]1CO (stereo partly drawn) [Compound 80, 1,4-Dideoxy-1,4[[2R,3R,4R]-2,3,5-trihydroxy-4-(sulfooxy)-pentyl]-epi-sulfoniumylidene]-D-arabinitol Inner salt]
inhibitory activity against recombinant human MGA (in words) [1]: not active

O=S(=O)([O-])OC(CO)C(O)C(O)C[Se+]1CC(O)C(O)C1CO [Compound 81, 1,4-Dideoxy-1,4[[2R,3R,4R]-2,3,5-trihydroxy-4-(sulfooxy)-pentyl]-epi-selenoniumylidene]-D-arabinitol Inner salt]
inhibitory activity against recombinant human MGA (in words) [1]: not active

O=S(=O)([O-])O[C@@H]([C@H](O)C[S@+]1C[C@@H](O)[C@H](O)[C@H]1CO)[C@@H](O)CO [Compound 89]
inhibitory activity against MGA (in words) [4]: inactive

O=S(=O)([O-])OC(CO)C(O)C[Se+]1CC(O)C(O)C1CO (stereo not shown) [blintol]
Ki ([4]; read-out: Ki against MGA, reference compounds, unit inferred): 0.49 ± 0.05 µM
IC50 [5]: ~7500 µM

O=S(=O)([O-])OC(C(O)C[S+]1CC(O)C(O)C1CO)C(O)C(O)C(O)CO (stereo not shown) [kotalanol]
IC50 [5]: ~7500 µM

O=S(=O)([O-])OC(CO)C(O)C[S+]1CC(O)C(O)C1CO (stereo not shown) [salacinol]
IC50 [5]: ~7500 µM

O[C@H]1[C@H]2[C@H](O)CCCN2C[C@H]1O [swainsonine]
IC50 ([5]; swainsonine, literature value): 0.02 to 0.04 µM
